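Five concentrations, 48 hours, 96-well plates. Abbreviation: GI50, concentration required for 50% inhibition of growth. TGI is the concentration that stops growth completely.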
Experiments:
Assay in all cases: NCI tumour cell line growth inhibition, 48 h
[1] = tested on: LXFL 529 NSCLC
[2] = tested on: M19-MEL melanoma
[3] = tested on: XF 498 CNS
[4] = tested on: P388 leukemia
[5] = tested on: P388/ADR leukemia
[6] = tested on: SN12K1 renal
[7] = tested on: RXF-631 renal

Compound	TGI [1]	TGI [2]	TGI [3]	further results
COc1cccc(-c2cc(=O)c3ccccc3[nH]2)c1	> 100 µM	> 100 µM	72.3 µM	
COc1cccc(/C=N/[N-]C(N)=O)c1[O-].[Cu+2].[OH3+].c1ccc(-c2ccccn2)nc1			19.9 µM	GI50 [3]: 7.92 µM
Cc1cc(=O)[nH]c(NN2C(Cl)C(=O)C2c2cccc(Cl)c2)n1 (stereo unspecified)		> 100 µM		
O=C1Nc2ccccc2Nc2ccncc21		> 100 µM		TGI [4]: > 100 µM; TGI [5]: > 31.6 µM; TGI [6]: > 100 µM
O=C1C(CN2CCOCC2)CCCC1CN1CCOCC1 (stereo unspecified)	2.96 µM	17.3 µM		TGI [7]: 30.4 µM
CCOC(=O)N(c1ccccc1)N(CC)C(=O)/C(C)=N/Nc1ccc([N+](=O)[O-])cc1	34.6 µM	31.2 µM	33.4 µM	
